Measured values published in patent US20090054398A1, “CHEMICAL COMPOUNDS” (ASTRAZENECA AB, priority 2006, published 2009).
Counter-ions that a name gives are not always drawn.

Tests used:
[1] = tested on: Notch 1 intracellular domain; experiment: Ability of compounds to block Notch signaling: Western analysis of active Notch 1 protein (Notch 1 intracellular domain) in SUP-T1 cells; format: cell-based; conditions: Homo sapiens; T lymphoblast SUP-T1 cells, 12-16 h with compound; Western blot with antibody to cleaved Notch 1 (Val 1744), band of approximately 100 kDa; read-out: estimated IC50
Method: T lymphoblast SUP-T1 cells (CRL-1942, ATCC, Manassas, Va.) are routinely cultured in culture medium comprising RPMI-1640 (Invitrogen, Carlsbad, Calif.) supplemented with 10% Fetal Bovine serum (Sigma Chemical Co., St. Louis, Mo.) and 2 mM glutamine (Invitrogen, Carlsbad, Calif.) and grown at 37° C. at 95%/5% (v/v) air/CO2 in 95% relative humidity (standard cell culture conditions). Cells in culture medium are plated into flat-bottomed tissue culture plates (Corning Costar, Acton, Mass.) Subsequently, a compound of Formula (1) or vehicle (e.g., 0.1% (v/v) DMSO) may be added and plates are incubated for a further 12-16 h under standard cell culture conditions. Subsequently, the presence of active Notch 1 protein (Notch 1 intracellular domain) is determined by Western analysis according to conventional methods. Immunoblotting is performed using a primary antibody to cleaved Notch 1 (Val 1744; Cell Signaling Technology, Danvers, Mass.) and a goat anti-rabbit horseradish peroxidase conjugated secondary antibody (Santa Cruz Biotechnology, Santa Cruz, Calif.). For Western blotting, equal amounts of protein extracted from each sample (20 μg) are loaded into pre-cast 4-12% NuPAGE Tris-Glycine gels (Invitrogen, Carlsbad, Calif.). Proteins are separated by SDS-PAGE and transferred electrophoretically to polyvinylidene diflouride membranes (Invitrogen, Carlsbad, Calif.) using a semi-dry blotter. The membrane is washed briefly in Tris-buffered saline (TBS) (Bio-Rad Laboratories, Hercules, Calif.) and blocked for 1 h in TBS supplemented with 0.05% (v/v) Tween 20 (TBST) and 5% (w/v) dried milk, before being incubated for ˜12 h with primary antibody in TBS supplemented with 0.05% (v/v) Tween 20 (TBST) and 5% (w/v) dried milk. Following washing in TBST, the membrane is incubated with secondary antibody as indicated prior to visualization via enhanced chemiluminescent detection using DuraWest reagent (Pierce Biotechnology, Rockford, Ill.) and is detected with Amersham Hyperfilm MP according to the manufacturer's instructions. […]

SMILES	melting point [°C]	IC50 [1] [nM]
C[C@H](NC(=O)Cc1cc(F)cc(F)c1)C(=O)N[C@@H]1C(=O)NCCS[C@@H]1c1ccccc1 [Example 7, N^2-[(3,5-Difluorophenyl)acetyl]-N^1-[(6R,7R)-5-oxo-7-phenyl-1,4-thiazepan-6-yl]-L-alaninamide]	128 to 133	–
C[C@H](NC(=O)Cc1cc(F)cc(F)c1)C(=O)N[C@@H]1C(=O)Nc2cc(F)ccc2O[C@@H]1c1ccccc1 [Example 75, N^2-[(3,5-Difluorophenyl)acetyl]-N^1-[(2R,3S)-7-fluoro-4-oxo-2-phenyl-2,3,4,5-tetrahydro-1,5-benzoxazepin-3-yl]-L-alaninamide]	–	3.98
C[C@H](NC(=O)Cc1cc(F)cc(F)c1)C(=O)N[C@@H]1C(=O)Nc2ccccc2S[C@@H]1c1ccsc1 [Example 100, N^2-[(3,5-Difluorophenyl)acetyl]-N^1-[(2R,3R)-4-oxo-2-(3-thienyl)-2,3,4,5-tetrahydro-1,5-benzothiazepin-3-yl]-L-alaninamide]	117 to 122	50.1
C[C@H](NC(=O)Cc1cc(F)cc(F)c1)C(=O)N[C@@H]1C(=O)Nc2ccccc2S[C@@H]1c1ccco1 [Example 101, N^2-[(3,5-Difluorophenyl)acetyl]-N^1-[(2S,3R)-2-(2-furyl)-4-oxo-2,3,4,5-tetrahydro-1,5-benzothiazepin-3-yl]-L-alaninamide]	125 to 130	–
C[C@H](NC(=O)Cc1cc(F)cc(F)c1)C(=O)N[C@@H]1C(=O)Nc2ccccc2S[C@@H]1c1cc(Br)cs1 [Example 104, N^1-[(2S,3R)-2-(4-Bromo-2-thienyl)-4-oxo-2,3,4,5-tetrahydro-1,5-benzothiazepin-3-yl]-N^2-[(3,5-difluorophenyl)acetyl]-L-alaninamide]	145 to 155	–
C[C@H](NC(=O)Cc1ccccc1)C(=O)N[C@@H]1C(=O)Nc2ccccc2O[C@@H]1c1ccccc1 [Example 113, N^1-[(2R,3S)-4-Oxo-2-phenyl-2,3,4,5-tetrahydro-1,5-benzoxazepin-3-yl]-N^2-(phenylacetyl)-L-alaninamide]	122 to 136	–
C[C@H](NC(=O)Cc1ccccc1F)C(=O)N[C@@H]1C(=O)Nc2ccccc2O[C@@H]1c1ccccc1 [Example 114, N^2-[(2-Fluorophenyl)acetyl]-N^1-[(2R,3S)-4-oxo-2-phenyl-2,3,4,5-tetrahydro-1,5-benzoxazepin-3-yl]-L-alaninamide]	115 to 135	16.6
C[C@H](NC(=O)Cc1cccc(F)c1)C(=O)N[C@@H]1C(=O)Nc2ccccc2O[C@@H]1c1ccccc1 [Example 115, N^2-[(3-Fluorophenyl)acetyl]-N^1-[(2R,3S)-4-oxo-2-phenyl-2,3,4,5-tetrahydro-1,5-benzoxazepin-3-yl]-L-alaninamide]	130 to 140	–
C[C@H](NC(=O)Cc1ccc(F)cc1)C(=O)N[C@@H]1C(=O)Nc2ccccc2O[C@@H]1c1ccccc1 [Example 116, N^2-[(4-Fluorophenyl)acetyl]-N^1-[(2R,3S)-4-oxo-2-phenyl-2,3,4,5-tetrahydro-1,5-benzoxazepin-3-yl]-L-alaninamide]	130 to 140	–

Next, values leading:

melting point [°C]	IC50 [1] [nM]	SMILES
184 to 195	–	C[C@H](NCCc1ccccc1)C(=O)N[C@@H]1C(=O)Nc2ccccc2S[C@@H]1c1ccccc1 (as salt: hydrochloride) [Example 98, N^1-[(2R,3R)-4-Oxo-2-phenyl-2,3,4,5-tetrahydro-1,5-benzothiazepin-3-yl]-N^2-(2-phenylethyl)-L-alaninamide]
114 to 124	–	C[C@H](NC(=O)Cc1ccccc1)C(=O)N[C@@H]1C(=O)Nc2ccccc2S[C@@H]1c1ccccc1 [Example 97, N^1-[(2R,3R)-4-Oxo-2-phenyl-2,3,4,5-tetrahydro-1,5-benzothiazepin-3-yl]-N^2-(phenylacetyl)-L-alaninamide]
117 to 119	–	C[C@H](NC(=O)Cc1cc(F)cc(F)c1)C(=O)N[C@@H]1C(=O)Nc2ccccc2S[C@@H]1c1cccs1 [Example 99, N^2-[(3,5-Difluorophenyl)acetyl]-N^1-[(2S,3R)-4-oxo-2-(2-thienyl)-2,3,4,5-tetrahydro-1,5-benzothiazepin-3-yl]-L-alaninamide]
115 to 120	–	C[C@H](NC(=O)Cc1cc(F)cc(F)c1)C(=O)N[C@@H]1C(=O)Nc2ccccc2S[C@H]1c1ccoc1 [Example 102, N^2-[(3,5-Difluorophenyl)acetyl]-N^1-[(2S,3R)-2-(3-furyl)-4-oxo-2,3,4,5-tetrahydro-1,5-benzothiazepin-3-yl]-L-alaninamide]
139 to 140	–	C[C@H](NC(=O)Cc1cc(F)cc(F)c1)C(=O)N[C@@H]1C(=O)Nc2ccccc2S[C@@H]1c1ccc(Br)s1 [Example 103, N^1-[(2S,3R)-2-(5-Bromo-2-thienyl)-4-oxo-2,3,4,5-tetrahydro-1,5-benzothiazepin-3-yl]-N^2-[(3,5-difluorophenyl)acetyl]-L-alaninamide]
115 to 120	–	N[C@@H](Cc1ccccc1)C(=O)N(C(=O)Cc1cc(F)cc(F)c1)[C@@H]1C(=O)Nc2ccccc2S[C@@H]1c1ccccc1 [Example 105, N-[(3,5-Difluorophenyl)acetyl]-N-[(2R,3R)-4-oxo-2-phenyl-2,3,4,5-tetrahydro-1,5-benzothiazepin-3-yl]-L-phenylalaninamide]
125 to 130	–	O=C(Cc1cc(F)cc(F)c1)NCC(=O)N[C@@H]1C(=O)Nc2ccccc2S[C@@H]1c1ccccc1 [Example 106, N^2-[(3,5-Difluorophenyl)acetyl]-N^1-[(2R,3R)-4-oxo-2-phenyl-2,3,4,5-tetrahydro-1,5-benzothiazepin-3-yl]glycinamide]
110 to 115	–	CC(C)[C@H](NC(=O)Cc1cc(F)cc(F)c1)C(=O)N[C@@H]1C(=O)Nc2ccccc2S[C@@H]1c1ccccc1 [Example 107, N^2-[(3,5-Difluorophenyl)acetyl]-N^1-[(2R,3R)-4-oxo-2-phenyl-2,3,4,5-tetrahydro-1,5-benzothiazepin-3-yl]-L-valinamide]
85 to 90	–	CSCC[C@H](NC(=O)Cc1cc(F)cc(F)c1)C(=O)N[C@@H]1C(=O)Nc2ccccc2S[C@@H]1c1ccccc1 [Example 109, N^2-[(3,5-Difluorophenyl)acetyl]-N^1-[(2R,3R)-4-oxo-2-phenyl-2,3,4,5-tetrahydro-1,5-benzothiazepin-3-yl]-L-methioninamide]
85 to 90	–	O=C(Cc1cc(F)cc(F)c1)N[C@@H](Cc1cc2ccccc2[nH]1)C(=O)N[C@@H]1C(=O)Nc2ccccc2S[C@@H]1c1ccccc1 [Example 110, N^2-[(3,5-Difluorophenyl)acetyl]-3-(1H-indol-2-yl)-N^1-[(2R,3R)-4-oxo-2-phenyl-2,3,4,5-tetrahydro-1,5-benzothiazepin-3-yl]-L-alaninamide]
